Measurements as given in US5385918A, “Aminomethylene-peptides as immunosuppressants” (Miles Inc., priority 1993, dated 1995).

Key:
[1] = test system: human T-cells; assay: Suppression of Human T-Cell Proliferation Assay (PHA-stimulated, [3H]-thymidine incorporation); assay type: cell-based; settings: inhibition of [3H]-thymidine incorporation of PHA-stimulated purified human T-cells, 72 hours
Description: Inhibition of mitogen-induced T-cell proliferation can be used to profile immunosuppressive activity of test compounds. In the description of the assay which follows, mitogen-induced T-cell proliferation was used to test the inhibitory potencies of select compounds of the present invention.
In an assay similar to that described by Bradley in Mishell et al. (Eds.), 1980, Selected Methods in Cellular Immunology, pp 156-161, W. H. Freeman & Co., San Fransisco, Calif., T-cells were stimulated by incubation with phytohemagglutinin (PHA) which binds to cell surface molecules, including the T-cell receptor. This stimulation results in proliferation which can be measured by incorporation of [^3 H]-thymidine into cellular DNA.
Fresh LeukoPaks were obtained from the New York Blood Center, New York, N.Y. The cells, including erythrocytes and leukocytes, were diluted with Hank's Balanced Salt Solution (HBSS) (GIBCO, Grand Island, N.Y.) and layered over Lymphoprep (Nycomed Pharma AS, Oslo, Norway) in sterile 50 ml conical centrifuge tubes. Lymphocytes were isolated at the Hank's/Nycomed interface after centrifugation at 2000×g, 4° C. for 15 min. The lymphocytes were washed with Minimal Essential Medium (GIBCO) containing 2% fetal bovine serum (FBS) (Sigma Chemical Co., St. Louis, Mo.), 1% HEPES buffer (GIBCO) and 1% Penicillin-Stretomycin solution (GIBCO).
T-cells were further purified essentially by sheep erythrocyte (SRBC) rosetting as described by Morimoto et al., 1983, J. Immunol. 130:157. The isolated lymphocytes were adjusted to 2×10^7 cells/ml and 5 ml aliquots of the cell suspension were incubated for 10 minutes at room temperature with 5 ml of a 5% SRBC (Cappel, Organon Technika Corp., West Chester, Pa.) suspension. The cells were gently pelleted by centrifugation at 300 rpm for 10 minutes, followed by a 1 hour incubation at room temperature to allow rosette formation. The cells were gently resuspended,layered over Lymphoprep and centrifuged for 30 minutes at 500×g. The pellet, containing rosetted T-cells and SRBC was treated with ice cold buffered ammonium chloride (GIBCO) to lyse the erythrocytes. T-cells were washed twice with HBSS.
Purified T-cells were resuspended at 2×10^6 cells/ml in complete culture medium composed of RPMI-1640 (Whittaker Bioproducts, Walkerville, Md.) with 10% FBS (Sigma), 2 mM L-glutamine (GIBCO), 1% Penicillin-Streptomycin (GIBCO) and 15 mM HEPES (GIBCO). In 96-well plates (Becton Dickinson, Lincoln Park, N.J.), 0.1 ml aliquots of T-cell suspension were mixed with 0.05 ml of 40 μg/ml PHA-M (Sigma). The compounds of this invention were dissolved in dimethylsulfoxide at 10 mM and various dilutions in complete medium were added in duplicate wells (0.05 ml/well). The plates were incubated at 37° C. in a humidified atmosphere of 5% carbon dioxide and 95% air for 72 hours.
Proliferation was assessed by measurement of [^3 H]-thymidine incorporation. During the last 6 hours of incubation, the cells were pulse labelled with 1 μCi/well of [^3 H]-thymidine (New England Nuclear, Boston, Mass.). The cells were harvested onto glass fiber paper using a plate harvester and the radioactivity incorporated into cellular DNA corresponding to individual wells was measured by standard liquid scintillation counting methods. The mean counts per minute (CPM) of replicate wells was calculated and linear regression analysis of mean CPM versus compound concentration was used to determine the concentration of compound which would inhibit [^3 H]-thymidine incorporation of T-cells by 50% (IC50).

[2] = target: FKBP (Homo sapiens, UniProt P62942); assay: PPIase Inhibition Assay; assay type: biochemical; settings: inhibition of PPIase activity of FKBP, substrate Succinyl-Ala-Phe-Pro-Phe-para-nitroanilide
Protocol: This assay follows in principle the procedure described in Kofron et al., 1991, Biochemistry 30:6127. The three main reagents used are PPIase, a substrate for PPIase, and a selected inhibitor compound of the present invention. The basic principle behind this assay is the conversion of the cis isomer of the substrate to the trans form, which conversion is catalyzed by PPIase. Essentially, inhibition of this PPIase activity is measured for the selected compounds. A peptide chymotrypsin substrate containing a proline in the P2 position is only cleaved by chymotrypsin when the Phe-Pro bond is in the trans isomeric configuration. In the presence of excess chymotrypsin, all of the trans peptide isomers are cleaved within approximately five seconds, leaving only cis forms.
The cis peptide will spontaneously convert to the trans isomer at a slow rate. The cis to trans conversion is catalyzed by isomerases at a much faster rate than this spontaneous conversion. Proteins with PPIase activity are examples of such isomerases. After isomerization, the peptide is cleaved by chymotrypsin releasing p-nitroaniline which can be monitored at 390 nm. The rate of release is then calculated using a first order rate plus offset equation utilizing the ENZFITTER program (Leatherbarrow, BIOSOFT, Cambridge, United Kingdom).
In a plastic cuvette are added 950 ul of ice cold assay buffer (25 mM HEPES, pH 7.8, 100 mM NaCl), 10 uL of FKBP (2.5 uM in 10 mM Tris-Cl pH 7.5, 100 mM NaCl, 1 mM dithiothreitol), 25 ul of chymotrypsin (50 mg/ml in 1 mM HCl) and 10 ul of the test compound at various concentrations in dimethyl sulphoxide. The reaction is initiated by addition of 5 ul of substrate (Succinyl-Ala-Phe-Pro-Phe-para-nitroanilide, 5 mg/ml in 235 mM LiCl in trifluoroethanol).
The absorbance at 390 nm versus time is monitored for 90 sec using a Beckman DU70 spectrophotometer. The absorbance versus time data files are transferred to an IBM XT computer and the rate constants determined using the commercial Enzfitter program. For each set of data, the uncatalyzed rate of conversion is measured and the uninhibited enzymatic rate determined. The data are expressed as % Inhibition and are calculated as follows: [formula] where kobs is the rate in the presence of a selected test compound, kuncat is the rate in the absence of enzyme, and kuninh is the rate in the presence of enzyme and absence of inhibitor. Data are plotted as percent inhibition versus concentration of inhibitor. The values of the concentration of inhibitor required for 50% inhibition of enzyme activity (IC50) were determined by nonlinear least squares regression analysis.

Chain of FKBP (P62942 whole entry): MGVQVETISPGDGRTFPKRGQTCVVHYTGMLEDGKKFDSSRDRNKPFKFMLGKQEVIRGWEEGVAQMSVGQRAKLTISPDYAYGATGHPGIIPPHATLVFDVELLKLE

| SMILES | IC50 [2] | IC50 [1] |
| --- | --- | --- |
| CC[C@H](C)[C@H](NC(=O)[C@@H]1CCCN1CC(CC(C)C)NC(=O)OC(C)(C)C)C(=O)OCc1ccccc1 (stereo partly drawn) [Example 5, 1-[1-[2-[[(1,1-Dimethylethoxy)carbonyl]amino]-4-methylpentyl]-L-proline]-L- Isoleucine Phenylmethyl Ester] | 3000 nM | 27000 nM |
| CC[C@H](C)[C@H](NC(=O)[C@@H]1CCCCN1C[C@@H](NC(=O)C(C)(C)C)[C@@H](C)CC)C(=O)NCc1ccccc1 [Example 21, 1-[1-[2-(S)-[(2,2-Dimethyl-propionyl)-amino]-3-(S)-methylpentyl]-L-homoproline]-L-isoleucine benzylamide] | – | 720 nM |
| CC[C@H](C)[C@H](NC(=O)[C@@H]1CCCCN1C[C@@H](NC(=O)CC(C)(C)C)[C@@H](C)CC)C(=O)NCc1ccccc1 [Example 22, 1-[1-[2-(S)-[(3,3-dimethyl-butyryl)-amino]-3-(S)-methylpentyl]-L-homoproline]-L-isoleucine benzylamide] | – | 1000 nM |
| CC[C@H](C)[C@H](NC(=O)[C@@H]1CCCCN1C[C@@H](NC(=O)CC(C)C)[C@@H](C)CC)C(=O)NCc1ccccc1 [Example 23, 1-[1-[2-(S)-[(3-methyl-butyryl)-amino]-3-(S)-methylpentyl]-L-homoproline]-L -isoleucine benzylamide] | – | 900 nM |
| CCCC(=O)N[C@H](CN1CCCC[C@H]1C(=O)N[C@H](C(=O)NCc1ccccc1)[C@@H](C)CC)[C@@H](C)CC [Example 24] | – | 1700 nM |

Now from value to molecule, other results behind:

| IC50 [2] | SMILES | IC50 [1] |
| --- | --- | --- |
| > 50000 nM | COC(=O)[C@H](Cc1ccc(OC)cc1)N(C)C(=O)[C@@H]1CCCN1C[C@H](CC(C)C)NC(=O)OC(C)(C)C [Example 9, 1-Methyl-1-[1-[2-(S)-[[(1,1-dimethylethoxy)carbonyl]amino]-4-methylpentyl]-L-proline]-L-Tyrosine(O-Methyl)Methyl Ester] | 16000 nM |
| 900 nM | CC[C@H](C)[C@H](NC(=O)[C@@H]1CCCN1C[C@H](CC(C)C)NC(=O)[C@H](CC(N)=O)NC(=O)OC(C)(C)C)C(=O)OCc1ccccc1 [Example 10, 1-[1-[2-(S)-[[4-Amino-2-(S)-[[(1,1-dimethylethoxy)-carbonyl]amino]-1,4-dioxobutyl]amino]-4-methylpentyl]-L-proline]-L-isoleucine Phenylmethyl Ester] | 30000 nM |
| 8400 nM | CC[C@H](C)[C@H](NC(=O)[C@@H]1CCCN1CC(CC(C)C)NC(=O)[C@H](CC1CCCCC1)NC(=O)OC(C)(C)C)C(=O)OCc1ccccc1 (stereo partly drawn) [Example 11, 1-[1-[2-[[3-Cyclohexyl-2-(S)-[[(1,1-dimethylethoxy)-carbonyl]amino]-1-oxopropyl]amino]-4-methylpentyl]-L-proline]-L-isoleucine Phenylmethyl Ester] | < 6000 nM |
| 2400 nM | CC[C@H](C)[C@H](NC(=O)[C@@H]1CCCN1C[C@H](CC(C)C)NC(=O)[C@@H](N)CC(N)=O)C(=O)OCc1ccccc1 [Example 12] | < 6000 nM |
| 1300 nM | CC[C@H](C)[C@H](NC(=O)[C@@H]1CCCN1C[C@H](CC(C)C)NC(=O)[C@@H](N)CC1CCCCC1)C(=O)OCc1ccccc1 [Example 13, 1-[1-[2-(S)-[[2-(S)-amino-3-cyclohexyl-1-oxopropyl]-amino]-4-methylpentyl]-L-proline]-L-isoleucine Phenylmethyl Ester] | < 6000 nM |
| 2500 nM | CC[C@H](C)[C@H](NC(=O)[C@@H]1CCCN1C[C@H](CC(C)C)NC(=O)[C@H](CC(N)=O)NC(=O)[C@@H](N)Cc1ccccc1)C(=O)OCc1ccccc1 [Example 15, 1-[1-[2-(S)-[[1-[2-(S)-Amino-1-Oxo-3-phenylpropyl]-L-asparaginyl]amino]-4-methylpentyl]-L-proline]-L-isoleucine Phenylmethyl Ester] | – |
